Converted amounts (≈) assume the structure as drawn. Square brackets hold non-standard residues; d marks the D form. Peptide text beside a SMILES is read from it. * marks the point of attachment. Octanoyl = CCCCCCCC(=O)*
Columns and labels:
Format in all cases: cell-based
melanoma cell line WM852 = test: Melanoma growth reduction (Example 5); conditions: for % Growth Reduction (7 days) WM852-2%: 2% tumor media; for % Growth Reduction (7 days) WM852-PF: PF media
Protocol: (§1) Melanoma cell lines WM-239-A (metastatic melanoma), WM278 (primary melanoma), WM793 (primary melanoma) and WM1158 (metastatic melanoma) were seeded in 24-well plates at a concentration of 7.5×10^4 cells/ml containing 2% tumor medium.
(§2) Peptides (SEQ ID NO:6) and D-(SEQ ID NO:6), in which each amino acid residue is a D-amino residue or a glycine residue, were frozen at -20° C. in […] aliquots at a concentration of 25 mg/ml. Each peptide was then dissolved in sterile distilled water at a dilution of 1:1,000 or 1:5,000 to provide peptide concentrations of 25 μg/ml or 5 μg/ml, respectively. The peptides at the 25 μg/ml or 5 μg/ml concentrations were then added to the plates containing the melanoma cells. The amount of ^3 H-thymidine incorporation for each well was taken on days 1, 3, and 7.
(§3) Peptides (SEQ ID NO:10) and D-(SEQ ID NO:10), in which each amino acid is a D-amino acid residue, are tested for % growth reduction of melanoma cell lines WM852 (grown in 2% tumor media or PF media), WM983A (grown in 2% tumor media or PF media), WM793 (grown in 2% tumor media), and WM1985 (grown in PF media) according to the procedure of Example 4, except that only a concentration of 25 μg/ml was employed for (SEQ ID NO:10), and concentrations of 1.0, 2.5, 5.0, 10.0, and 25.0 μg/ml were employed for D-(SEQ ID NO:10).

[1] = test system: melanoma cell line WM983A; test: Melanoma growth reduction (Example 5); conditions: for % Growth Reduction (7 days) WM-983A-2%: 2% tumor media; for % Growth Reduction (7 days) WM983A-PF: PF media
Protocol: as §1, §2, §3

[2] = test system: melanoma cell line WM1985; test: Melanoma growth reduction (Example 5); conditions: PF media
Protocol: as §1, §2, §3

melanoma cell line WM793 = test: Melanoma growth reduction (Example 5); conditions: 2% tumor media
Protocol: as §1, §2, §3

C. albicans = test: MIC assay, microtiter broth dilution (NCCLS M7-T2); conditions: Mueller Hinton broth, 16-20 hours at 37° C.
Protocol: (§4) The procedure for the following antibacterial assay is based upon the guidelines of the National Committee for Clinical Laboratory Standards, Document M7-T2, Volume 8, No. 8, 1988.
(§5) were prepared at a concentration of 512 μpg/ml in sterile deionized distilled water and stored at -70° C.
(§6) 1.5×10^5 CFUs/ml of either S. aureus ATCC 25923, E. coli ATCC 25922, P. aeruginosa ATCC 27853, or C. albicans were added to the wells in full strength Mueller Hinton broth (BBL 11443) from a mid-log culture. The inoculums are standarized spectrophotometrically at 600 nm and is verified by colony counts. The plates are incubated for 16-20hours at 37° C., and the minimal inhibitory concentration (MIC) for each peptide is determined. Minimal inhibitory concentration is defined as the lowest concentration of peptide which produces a clear well in the microtiter plate.

E. coli ATCC 25922 = test: Antibacterial MIC assay, microtiter broth dilution (NCCLS M7-T2); conditions: Mueller Hinton broth, 16-20 hours at 37° C.
Protocol: as §4, §5, §6

S. aureus ATCC 25923 = test: as above; conditions: Mueller Hinton broth, 16-20 hours at 37° C.
Protocol: as §4, §5, §6

P. aeruginosa ATCC 27853 = test: as above; conditions: Mueller Hinton broth, 16-20 hours at 37° C.
Protocol: as §4, §5, §6

## CC(C)C[C@@H](NC(=O)[C@@H](CCCCN)NC(=O)[C@@H](CCCCN)NC(=O)[C@@H](CC(C)C)NC(=O)[C@@H](CC(C)C)NC(=O)[C@@H](CCCCN)NC(=O)[C@@H](CCCCN)NC(=O)[C@@H](CC(C)C)NC(=O)[C@@H](CCCCN)NC(=O)[C@@H](CCCCN)NC(=O)[C@@H](CC(C)C)NC(=O)[C@@H](CC(C)C)NC(=O)[C@@H](CCCCN)NC(=O)[C@H](N)CCCCN)C(N)=O [D-(SEQ ID NO:10)] (H-[dK][dK][dL][dL][dK][dK][dL][dK][dK][dL][dL][dK][dK][dL]-NH2)
Melanoma cell line WM852; dose 1.0 μg/ml
  % Growth Reduction (7 days) WM852-2%: 3.0%
  % Growth Reduction (7 days) WM852-PF: 2.9%
Melanoma cell line WM852; dose 2.5 μg/ml
  % Growth Reduction (7 days) WM852-2%: 5.4%
  % Growth Reduction (7 days) WM852-PF: 22.9%
Melanoma cell line WM852; dose 5.0 μg/ml
  % Growth Reduction (7 days) WM852-2%: 8.8%
  % Growth Reduction (7 days) WM852-PF: 32.4%
Melanoma cell line WM852; dose 10.0 μg/ml
  % Growth Reduction (7 days) WM852-2%: 16.2%
  % Growth Reduction (7 days) WM852-PF: 80.6%
Melanoma cell line WM852; dose 25 μg/ml
  % Growth Reduction (7 days) WM852-2%: 84.7%
  % Growth Reduction (7 days) WM852-PF: 91.1%
[1]; dose 1.0 μg/ml
  % Growth Reduction (7 days) WM-983A-2%: 0%
  % Growth Reduction (7 days) WM983A-PF: 3.3%
[1]; dose 2.5 μg/ml
  % Growth Reduction (7 days) WM-983A-2%: 0%
  % Growth Reduction (7 days) WM983A-PF: 13.9%
[1]; dose 5.0 μg/ml
  % Growth Reduction (7 days) WM-983A-2%: 0%
  % Growth Reduction (7 days) WM983A-PF: 29.8%
[1]; dose 10.0 μg/ml
  % Growth Reduction (7 days) WM-983A-2%: 13.8%
  % Growth Reduction (7 days) WM983A-PF: 84.9%
[1]; dose 25 μg/ml
  % Growth Reduction (7 days) WM-983A-2%: 71.3%
  % Growth Reduction (7 days) WM983A-PF: 90.0%
[2]; dose 1.0 μg/ml
  % Growth Reduction (7 days) WM1985-PF: 5.5%
[2]; dose 2.5 μg/ml
  % Growth Reduction (7 days) WM1985-PF: 23.6%
[2]; dose 5.0 μg/ml
  % Growth Reduction (7 days) WM1985-PF: 52.1%
[2]; dose 10.0 μg/ml
  % Growth Reduction (7 days) WM1985-PF: 84.3%
[2]; dose 25 μg/ml
  % Growth Reduction (7 days) WM1985-PF: 92.6%
Melanoma cell line WM793; dose 2.5 μg/ml
  % Growth Reduction (7 days) WM793-2%: 18.2%
Melanoma cell line WM793; dose 5.0 μg/ml
  % Growth Reduction (7 days) WM793-2%: 0%
Melanoma cell line WM793; dose 10.0 μg/ml
  % Growth Reduction (7 days) WM793-2%: 12.3%
Melanoma cell line WM793; dose 25 μg/ml
  % Growth Reduction (7 days) WM793-2%: 84.9%

## CCCCCCCC(=O)N[C@@H](CC(C)C)C(=O)N[C@@H](CCCCN)C(=O)N[C@@H](CCCCN)C(=O)N[C@@H](CC(C)C)C(=O)N[C@@H](CC(C)C)C(=O)N[C@@H](CCCCN)C(=O)N[C@@H](CCCCN)C(=O)N[C@@H](CC(C)C)C(=O)N[C@@H](CCCCN)C(=O)N[C@@H](CCCCN)C(=O)N[C@@H](CC(C)C)C(N)=O [Oct-(SEQ ID NO:11)-NH2, reference compound] (Octanoyl-LKKLLKKLKKL-NH2)
C. albicans
  MIC C. albicans: 32 µg/mL (≈ 21.6 µM)
E. coli ATCC 25922
  MIC E. coli: 8 µg/mL (≈ 5.41 µM)
S. aureus ATCC 25923
  MIC S. aureus: 4 µg/mL (≈ 2.71 µM)
P. aeruginosa ATCC 27853
  MIC P. aeruginosa: 4 µg/mL (≈ 2.71 µM)

## CCCCCCCC(=O)N[C@H](CC(C)C)C(=O)N[C@H](CCCCN)C(=O)N[C@H](CCCCN)C(=O)N[C@H](CC(C)C)C(=O)N[C@H](CC(C)C)C(=O)N[C@H](CCCCN)C(=O)N[C@H](CCCCN)C(=O)N[C@H](CC(C)C)C(=O)N[C@H](CCCCN)C(=O)N[C@H](CCCCN)C(=O)N[C@H](CC(C)C)C(N)=O [Oct-D-(SEQ ID NO:11)-NH2] (Octanoyl-[dL][dK][dK][dL][dL][dK][dK][dL][dK][dK][dL]-NH2)
C. albicans
  MIC C. albicans: 32 µg/mL (≈ 21.6 µM)
E. coli ATCC 25922
  MIC E. coli: 8 µg/mL (≈ 5.41 µM)
S. aureus ATCC 25923
  MIC S. aureus: 4 µg/mL (≈ 2.71 µM)
P. aeruginosa ATCC 27853
  MIC P. aeruginosa: 4 µg/mL (≈ 2.71 µM)

Reference: US5792831A, “Analogues of magainin peptides containing D-amino acids” (priority 1994, dated 1998)
